The results in this text go back to ChEMBL document CHEMBL1150390, “Identification of halosalicylamide derivatives as a novel class of allosteric inhibitors of HCV NS5B polymerase” (Bioorg Med Chem Lett, 2008).

One test deals with Hepatitis C virus. As to the kind of experiment: Inhibition of HCV 1b NS5B polymerase. More on the design: species or system Hepatitis C virus subtype 1b.
The target in the next test is Genome polyprotein (Hepatitis C virus genotype 1b (isolate BK) (HCV), UniProt P26663). Nature of the test: Inhibition of HCV BK NS5B polymerase.
A short description of test [1]: Inhibition of HCV 2a NS5B polymerase. Also noted: species or system Hepatitis C virus subtype 2a.
The nature of test [2]: Inhibition of HCV 2b NS5B polymerase. More on the design: species or system Hepatitis C virus subtype 2b.
Test [3] can be described thus: Inhibition of HCV 3a NS5B polymerase. More on the design: species or system Hepatitis C virus subtype 3a.
Test [4] in a line: Inhibition of HCV 1a NS5B polymerase. More on the design: species or system Hepatitis C virus subtype 1a.

Each structure is given as a SMILES string. pIC50: −log10 of the molar value. Bounds are passed on as bounds.

Chain of Genome polyprotein (P26663 2420-3010 limits assumed): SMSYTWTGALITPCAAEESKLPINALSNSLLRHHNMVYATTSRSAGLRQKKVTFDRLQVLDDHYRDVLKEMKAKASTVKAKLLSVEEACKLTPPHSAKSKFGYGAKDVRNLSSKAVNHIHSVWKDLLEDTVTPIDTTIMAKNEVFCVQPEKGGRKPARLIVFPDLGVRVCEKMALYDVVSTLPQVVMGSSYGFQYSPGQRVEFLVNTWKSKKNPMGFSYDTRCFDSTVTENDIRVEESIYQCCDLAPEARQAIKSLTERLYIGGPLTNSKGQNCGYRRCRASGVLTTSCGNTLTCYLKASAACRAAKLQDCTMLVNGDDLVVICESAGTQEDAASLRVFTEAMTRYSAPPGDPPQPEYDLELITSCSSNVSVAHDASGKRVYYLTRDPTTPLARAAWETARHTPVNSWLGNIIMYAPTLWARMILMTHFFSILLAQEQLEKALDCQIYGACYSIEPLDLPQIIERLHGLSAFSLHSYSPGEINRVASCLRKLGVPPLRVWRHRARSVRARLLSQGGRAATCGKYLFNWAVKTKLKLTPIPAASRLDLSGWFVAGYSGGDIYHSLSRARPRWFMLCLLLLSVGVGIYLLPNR

By pIC50 is commonly meant −log10 of the IC50, conventionally taken in molar units. Read a low pIC50 as a large IC50. `O=C(Nc1ccc(Cl)cc1)c1cc(I)cc(I)c1O` had a pIC50 in the test on Hepatitis C virus of 4.96.

In the test on Hepatitis C virus, `O=C(Nc1ccccc1)c1cc(I)cc(I)c1O` gave a pIC50 of 4.34. This pIC50 is 0.62 log units lower than that of the compound before.

In the test on Hepatitis C virus, `O=C(Nc1ccc(Br)cc1)c1cc(I)cc(I)c1O` had a pIC50 of 5.00.

`O=C(Nc1ccc(F)cc1)c1cc(I)cc(I)c1O` showed a pIC50 in the test with Hepatitis C virus of 4.48.

Consider `Cc1ccc(NC(=O)c2cc(I)cc(I)c2O)cc1`, for which, in the test on Hepatitis C virus, the pIC50 is 4.43.

Regarding `CN(C(=O)c1cc(I)cc(I)c1O)c1ccc(Cl)c(Cl)c1`, the pIC50 in the test on Hepatitis C virus was less than 3.70.

As to `COc1cc(Br)ccc1NC(=O)c1cc(Cl)cc(Cl)c1OC`, the pIC50 with Hepatitis C virus is less than 3.70.

In the test on Hepatitis C virus, `Cc1cc(NC(=O)c2cc(Cl)cc(Cl)c2O)ccc1Cl` gave a pIC50 of 5.05.

In the case of `Cc1cc(NC(=O)c2cc(Cl)cc(Cl)c2N)ccc1Cl`, the pIC50 in the test with Hepatitis C virus is 3.97.

In turn, `O=C(Nc1cccc(Br)c1)c1cc(Br)cc(Br)c1O` gave a pIC50 in the test with Hepatitis C virus of 5.16. Against the preceding compound, the pIC50 is 1.19 log units higher.

`Nc1c(Br)cc(Br)cc1C(=O)Nc1cccc(Br)c1` had a pIC50 in the test with Hepatitis C virus of 3.88.

Compound `O=C(Nc1ccc(Oc2ccccc2)cc1)c1cc(I)cc(I)c1O` gave a pIC50 in the test with Hepatitis C virus of 5.25.

In the test on Hepatitis C virus, `Nc1ccc(NC(=O)c2cc(I)cc(I)c2O)cc1` had a pIC50 of 4.52.

`O=C(Nc1ccc(O)cc1)c1cc(I)cc(I)c1O` showed a pIC50 in the test with Hepatitis C virus of 4.27.

For the compound `COc1ccc(NC(=O)c2cc(I)cc(I)c2O)cc1`, the pIC50 with Hepatitis C virus is 4.34. The pIC50 values of the last two compounds are within 0.2 log units of each other.

On to `O=C(Nc1ccc(Nc2ccccc2)cc1)c1cc(I)cc(I)c1O`, for which, in the test on Hepatitis C virus, the pIC50 is 5.72. This pIC50 lies 1.38 log units higher than the previous one.

Compound `Nc1c(Br)cc(Br)cc1C(=O)Nc1ccc(Br)cc1` showed a pIC50 with Hepatitis C virus of 4.01.

As for `Oc1c(I)cc(I)cc1/C=N/c1ccc(Cl)cc1Cl`, in the test with Hepatitis C virus, the pIC50 is 5.06.

`COc1c(Cl)cc(Cl)cc1C(=O)Nc1ccc(Br)cc1` had a pIC50 with Hepatitis C virus of less than 3.70.

Regarding `O=C(Nc1ccc(Cl)cc1O)c1cc(I)cc(I)c1O`, in the test with Hepatitis C virus, the pIC50 is 5.07.

Turning to `CN(C(=O)c1cc(Br)cc(Br)c1O)c1ccc(Cl)cc1`, in the test with Hepatitis C virus, the pIC50 was 3.87. This pIC50 is 1.20 log units lower than that of the compound before.

Compound `CC(=O)Oc1c(I)cc(I)cc1C(=O)Nc1ccc(Cl)c(Cl)c1` had a pIC50 in the test on Hepatitis C virus of less than 3.70.

`Nc1c(Cl)cc(Cl)cc1C(=O)Nc1ccc(Cl)c(Cl)c1` gave a pIC50 with Hepatitis C virus of 3.99.

Take `O=C(Nc1ccc(Cl)c(Cl)c1)c1cc(I)cc(I)c1O`: the pIC50 with Hepatitis C virus is 5.33; against Genome polyprotein it was 5.07; in test [1], 4.79; in test [2] it was 4.76; in test [3], 4.84; in test [4], 5.24.

Turning to `O=C(Nc1ccc(Cl)c(Cl)c1)c1cc(Cl)cc(Cl)c1O` [3,3',4',5-TETRACHLOROSALICYLANILIDE], the pIC50 in the test with Hepatitis C virus is 5.07.

In the case of `O=C(Nc1ccc(Br)cc1)c1cc(Br)cc(Br)c1O` [TRIBROMSALAN], the pIC50 with Hepatitis C virus is 5.17. The pIC50 values of the last two compounds are within 0.2 log units of each other.
